Data: PubChem BioAssay (NCI)
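Method: 48-hour compound exposure of cells in 96-well plates, five concentrations, linear interpolation of endpoints. At the GI50, growth is halved. TGI: total growth inhibition.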

Experiments:
Test in all cases: NCI anticancer screen, dose series, 48 h
[1] = test system: TK-10 renal
[2] = test system: HCC-2998 colon
[3] = test system: MCF7 breast
[4] = test system: NCI-H226 lung
[5] = test system: MDA-MB-435
[6] = test system: T-47D breast
[7] = test system: U251 CNS
[8] = test system: SF-268 CNS
[9] = test system: MDA-MB-231 breast
[10] = test system: HOP-92 NSCLC

Q: For CCc1ccccc1NC(=O)/C=C/c1ccccc1, which TGI [1] is on record?
A: > 100 µM

Q: And the TGI [2]?
A: > 100 µM

Q: What about the TGI [3] of the same compound?
A: > 100 µM

Q: And the TGI [4]?
A: > 100 µM

Q: And the TGI [5]?
A: > 100 µM

Q: What about the TGI [6] of the same compound?
A: > 100 µM

Q: What about the TGI [7] of the same compound?
A: > 100 µM

Q: And the TGI [8]?
A: > 100 µM

Q: What about the TGI [9] of the same compound?
A: > 100 µM

Q: Which results are given for NS(=O)(=O)c1ccc(N2N=C3c4ccccc4CC3C2c2cccs2)cc1 (stereo unspecified)?
A: GI50 [1]: 13.2 µM; TGI [1]: 34.1 µM; GI50 [2]: 14.8 µM; TGI [2]: 39.6 µM; GI50 [3]: > 100 µM; TGI [3]: > 100 µM; GI50 [5]: 19.3 µM; TGI [5]: 48.1 µM; GI50 [10]: 25.8 µM; TGI [10]: 55.8 µM; GI50 [6]: 66.9 µM; TGI [6]: > 100 µM; GI50 [7]: 19.4 µM; TGI [7]: 39.6 µM; GI50 [8]: > 100 µM; TGI [8]: > 100 µM; GI50 [9]: 16.8 µM; TGI [9]: 40.8 µM

Q: How did the TGI [1] turn out when CCc1cccc(C)c1N1C(=O)C(=O)C(c2nc3ccccc3o2)C(=O)C1=O was run?
A: > 100 µM

Q: What about the TGI [2] of the same compound?
A: > 100 µM

Q: What about the TGI [4] of the same compound?
A: > 100 µM

Q: And the TGI [10]?
A: > 100 µM

Q: What about the TGI [7] of the same compound?
A: > 100 µM

Q: And the TGI [8]?
A: > 100 µM

Q: What does the source list for Cc1cc(Cl)ccc1OCC(=O)Nc1nc(N)nc(N)n1?
A: TGI [1]: > 100 µM; TGI [3]: > 100 µM; TGI [4]: > 100 µM; TGI [5]: > 100 µM; TGI [10]: > 100 µM; TGI [6]: > 100 µM; TGI [7]: > 100 µM; TGI [8]: > 100 µM; TGI [9]: > 100 µM

Q: For O=c1c2cc(-c3ccccc3)sc2ncn1Cc1ccc(Cl)c(Cl)c1, which GI50 [3] is on record?
A: 12.1 µM

Q: What about the TGI [3] of the same compound?
A: > 100 µM

Q: What about the GI50 [4] of the same compound?
A: 13.1 µM

Q: What about the TGI [4] of the same compound?
A: 87.2 µM

Q: And the GI50 [5]?
A: 40.6 µM

Q: What about the TGI [5] of the same compound?
A: > 100 µM

Q: What about the GI50 [10] of the same compound?
A: 16.2 µM

Q: And the TGI [10]?
A: 40.5 µM

Q: What about the GI50 [6] of the same compound?
A: 31.8 µM

Q: And the TGI [6]?
A: > 100 µM

Q: What about the GI50 [7] of the same compound?
A: 15.5 µM

Q: What about the TGI [7] of the same compound?
A: 38.6 µM

Q: What about the GI50 [8] of the same compound?
A: 26 µM

Q: What about the TGI [8] of the same compound?
A: 80.3 µM

Q: What about the GI50 [9] of the same compound?
A: 3.92 µM

Q: What about the TGI [9] of the same compound?
A: 25 µM

Q: For Cc1cccc2c1c1ccc3c(c1n2C)C(=O)C=CC3=O, which TGI [1] is on record?
A: 7.19 µM

Q: And the TGI [2]?
A: 32.8 µM

Q: And the TGI [4]?
A: 32.8 µM

Q: And the TGI [10]?
A: 4.34 µM

Q: And the TGI [7]?
A: 25.8 µM

Q: What about the TGI [8] of the same compound?
A: 36.5 µM

Q: How did the TGI [1] turn out when CCOC(=O)CCC1(C(=O)OCC)CCCC1=O (stereo unspecified) was run?
A: > 100 µM

Q: And the TGI [2]?
A: > 100 µM

Q: And the TGI [4]?
A: > 100 µM

Q: And the TGI [10]?
A: > 100 µM

Q: And the TGI [7]?
A: > 100 µM

Q: What about the TGI [8] of the same compound?
A: > 100 µM

Q: With Cc1cc(C)nc(/C(=N\NC(N)=O)C(=O)Nc2nc3ccc(C)cc3s2)c1 as the compound, how does the TGI [1] read?
A: > 100 µM

Q: And the TGI [2]?
A: > 100 µM

Q: What about the TGI [4] of the same compound?
A: > 100 µM

Q: And the TGI [10]?
A: > 100 µM

Q: What about the TGI [7] of the same compound?
A: > 100 µM

Q: What about the TGI [8] of the same compound?
A: > 100 µM

Q: Which results are given for COC(=O)CCC12CCC(=O)C1[C@@H](C(=O)OC)C[C@H]2C(=O)OC (stereo partly specified)?
A: TGI [1]: > 100 µM; TGI [2]: > 100 µM; TGI [4]: > 100 µM; TGI [7]: > 100 µM; TGI [8]: > 100 µM

Q: What does the source list for Cc1ccc(Oc2ccccc2N)cc1?
A: TGI [1]: > 100 µM; TGI [2]: 34.2 µM; TGI [10]: > 100 µM; TGI [7]: 22.1 µM; TGI [8]: > 100 µM

Q: COc1ccc(OC(C(=O)O)C(C)C)c2c1CCCC2=O (stereo unspecified) was tested. Which TGI [1] did it give?
A: > 100 µM

Q: What about the TGI [2] of the same compound?
A: > 100 µM

Q: And the TGI [7]?
A: > 100 µM

Q: What about the TGI [8] of the same compound?
A: > 100 µM

Q: Which GI50 [1] does the source give for CCCCCN(CCCCC)CC(O)c1cc(Cl)ccc1OC (stereo unspecified) here?
A: 10.9 µM

Q: And the TGI [1]?
A: 24.1 µM

Q: What about the GI50 [2] of the same compound?
A: 5.72 µM

Q: And the TGI [2]?
A: 17.8 µM

Q: What about the GI50 [3] of the same compound?
A: 0.528 µM

Q: What about the TGI [3] of the same compound?
A: 2.66 µM

Q: What about the GI50 [4] of the same compound?
A: 9.79 µM

Q: And the TGI [4]?
A: 23.6 µM

Q: What about the GI50 [5] of the same compound?
A: 8.53 µM

Q: What about the TGI [5] of the same compound?
A: 21.1 µM

Q: And the GI50 [6]?
A: 11.5 µM

Q: And the TGI [6]?
A: 26.9 µM

Q: What about the GI50 [7] of the same compound?
A: 10.7 µM

Q: And the TGI [7]?
A: 25.5 µM

Q: What about the GI50 [8] of the same compound?
A: 11.4 µM

Q: What about the TGI [8] of the same compound?
A: 24.4 µM

Q: What about the GI50 [9] of the same compound?
A: 5.38 µM

Q: What about the TGI [9] of the same compound?
A: 20 µM

Q: How did the TGI [4] turn out when O=C(O)/C=C\C(=O)Nc1ccccn1 was run?
A: > 100 µM

Q: And the TGI [5]?
A: > 100 µM

Q: What about the TGI [10] of the same compound?
A: > 100 µM

Q: And the TGI [6]?
A: > 100 µM

Q: And the TGI [7]?
A: > 100 µM

Q: And the TGI [8]?
A: > 100 µM

Q: What about the TGI [9] of the same compound?
A: > 100 µM

Q: For Cc1c(C(=O)/C=C/C=C/c2ccccc2)[n+](=O)c2ccccc2n1[O-], which TGI [1] is on record?
A: > 100 µM

Q: And the TGI [2]?
A: 36.7 µM

Q: And the TGI [4]?
A: > 100 µM

Q: What about the TGI [10] of the same compound?
A: 89.1 µM

Q: And the TGI [7]?
A: > 100 µM

Q: What about the TGI [8] of the same compound?
A: > 100 µM

Q: How did the TGI [1] turn out when O=[N+]([O-])c1cccc(-c2nc(-c3ccccc3)c(-c3ccccc3)[nH]2)c1 was run?
A: > 100 µM

Q: What about the TGI [2] of the same compound?
A: > 100 µM

Q: What about the TGI [3] of the same compound?
A: > 100 µM

Q: What about the TGI [4] of the same compound?
A: > 100 µM

Q: And the TGI [5]?
A: > 100 µM

Q: And the TGI [6]?
A: > 100 µM

Q: What about the TGI [7] of the same compound?
A: > 100 µM

Q: What about the TGI [8] of the same compound?
A: > 100 µM

Q: What about the TGI [9] of the same compound?
A: > 100 µM

Q: C#CCNC(=O)NCCCCC(NC(=O)OCc1ccccc1)C(=O)OCc1ccccc1 (stereo unspecified) was tested. Which TGI [1] did it give?
A: > 100 µM

Q: What about the TGI [2] of the same compound?
A: > 72.5 µM

Q: And the TGI [4]?
A: > 100 µM

Q: What about the TGI [10] of the same compound?
A: > 100 µM

Q: And the TGI [7]?
A: > 100 µM

Q: With CN1CCN(CCOc2ccc(-c3cnc4c(-c5cccc(F)c5)cnn4c3)cc2)CC1 as the compound, how does the GI50 [1] read?
A: 2.07 µM

Q: And the TGI [1]?
A: 3.77 µM

Q: And the GI50 [2]?
A: 1.7 µM

Q: What about the TGI [2] of the same compound?
A: 3.28 µM

Q: And the GI50 [3]?
A: 1.51 µM

Q: And the TGI [3]?
A: 3.13 µM

Q: What about the GI50 [5] of the same compound?
A: 1.71 µM

Q: What about the TGI [5] of the same compound?
A: 3.16 µM

Q: And the GI50 [10]?
A: 1.41 µM

Q: And the TGI [10]?
A: 3.2 µM

Q: What about the GI50 [6] of the same compound?
A: 1.52 µM

Q: And the TGI [6]?
A: 3.71 µM

Q: What about the GI50 [7] of the same compound?
A: 1.64 µM

Q: And the TGI [7]?
A: 3.57 µM

Q: What about the GI50 [8] of the same compound?
A: 1.99 µM

Q: And the TGI [8]?
A: 4.79 µM

Q: What about the GI50 [9] of the same compound?
A: 1.71 µM

Q: And the TGI [9]?
A: 3.55 µM

Q: Which TGI [4] does the source give for O=c1cccccc1NCCCCCCCNc1cccccc1=O here?
A: > 100 µM

Q: And the TGI [10]?
A: 97.8 µM

Q: What about the TGI [8] of the same compound?
A: > 100 µM

Q: Which results are given for CN(C)c1nc(=NCc2ccco2)ss1?
A: TGI [1]: > 100 µM; TGI [2]: > 79.1 µM; TGI [3]: 33.1 µM; TGI [4]: > 91.5 µM; TGI [5]: 42.3 µM; TGI [6]: 20.1 µM; TGI [7]: 67.5 µM; TGI [8]: 51.8 µM; TGI [9]: 32.2 µM

Q: O=C(C#Cc1ccccc1)N1c2ccccc2CC1c1c[nH]c2ccccc12 (stereo unspecified) was tested. Which TGI [1] did it give?
A: 44.2 µM

Q: What about the TGI [2] of the same compound?
A: 31.3 µM

Q: What about the TGI [4] of the same compound?
A: 25.8 µM

Q: What about the TGI [10] of the same compound?
A: 32.5 µM

Q: What about the TGI [7] of the same compound?
A: 35.8 µM

Q: What does the source list for Cl/C(N=Nc1ccccc1)=N/Nc1ccccc1?
A: TGI [1]: > 100 µM; TGI [2]: > 100 µM; TGI [4]: > 100 µM; TGI [10]: > 100 µM; TGI [7]: > 100 µM; TGI [8]: > 100 µM

Q: Which results are given for NNc1cnn(-c2ccccc2)c(=O)c1Cl?
A: TGI [1]: > 100 µM; TGI [4]: > 100 µM; TGI [10]: > 100 µM; TGI [7]: > 100 µM; TGI [8]: > 100 µM

Q: N#C/C(=C\c1cccc(O)c1O)C(N)=O was tested. Which TGI [1] did it give?
A: > 100 µM

Q: And the TGI [2]?
A: 46.9 µM

Q: And the TGI [4]?
A: 88 µM

Q: And the TGI [10]?
A: > 100 µM

Q: And the TGI [7]?
A: > 100 µM

Q: And the TGI [8]?
A: > 100 µM

Q: What does the source list for Cn1c(=O)c2[nH]c(SCCN3CCOCC3)nc2n(C)c1=S?
A: TGI [1]: > 100 µM; TGI [3]: > 100 µM; TGI [4]: > 100 µM; TGI [5]: > 100 µM; TGI [10]: > 100 µM; TGI [6]: > 100 µM; TGI [7]: > 100 µM; TGI [8]: > 100 µM; TGI [9]: > 100 µM

Q: For CNc1ccc2ncccc2c1[N+](=O)[O-], which TGI [1] is on record?
A: > 100 µM

Q: And the TGI [2]?
A: > 100 µM

Q: And the TGI [4]?
A: > 100 µM

Q: What about the TGI [10] of the same compound?
A: > 100 µM

Q: And the TGI [8]?
A: > 100 µM
